From patent publication US8071581B2, “Triazolopyridazine protein kinase modulators” (SGX Pharmaceuticals, Inc., priority 2006, dated 2011)

Experiments:
GTL16 = GTL16 cell assay (EC50); format: cell-based; settings: Homo sapiens, GTL 16
Protocol: Compounds were tested in the following assays in duplicate. 96-well XTT assay: Cells were grown in growth media containing various concentrations of compounds (duplicates) on a 96-well flat bottom plate for 72 hours at 37° C. in 5% CO2. The starting cell number was 5000 cells per well and volume was 120 μl. At the end of the 72-hour incubation, 40 μl of XTT labeling mixture (50:1 solution of sodium 3′-[1-(phenylaminocarbonyl)-3,4-tetrazolium]-bis(4-methoxy-6-nitro) benzene sulfonic acid hydrate and Electron-coupling reagent: PMS (N-methyl dibenzopyrazine methyl sulfate) were added to each well of the plate. After an additional 2-6 hours […] with a spectrophotometer.

[1] = target: MET kinase (c-MET), kinase domain of human Met (Homo sapiens, UniProt P08581); assay: MET luminescence-based enzyme assay (Kinase-Glo)
Sequence of MET kinase (c-MET), kinase domain of human Met (P08581 1078-1345 limits assumed): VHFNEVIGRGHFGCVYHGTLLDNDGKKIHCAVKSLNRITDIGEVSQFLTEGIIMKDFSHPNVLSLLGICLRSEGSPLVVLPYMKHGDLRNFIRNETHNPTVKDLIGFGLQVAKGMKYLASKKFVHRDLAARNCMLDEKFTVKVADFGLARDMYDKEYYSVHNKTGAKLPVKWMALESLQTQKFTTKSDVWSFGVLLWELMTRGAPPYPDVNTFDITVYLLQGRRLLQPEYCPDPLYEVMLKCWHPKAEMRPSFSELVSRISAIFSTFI

Compound: CN(C)c1cccc(-c2ccc3nnc(Cc4ccc5ncccc5c4)n3n2)c1 [compound 67]
- EC50 (GTL16; Table 1): 100 to 1000 nM
- IC50 [1]: 100 to 1000 nM

Compound: Cn1cnc2ccc(Cc3nnc4ccc(-c5ccccc5)nn34)cc21 [compound 68, 3-(3-Methyl-3H-benzoimidazol-5-ylmethyl)-6-phenyl-[1,2,4]triazolo[4,3-b]pyridazine]
- EC50 (GTL16; Table 1): 100 to 1000 nM
- IC50 [1]: 100 to 1000 nM

Compound: N#Cc1cc(-c2ccc3nnc(Cc4ccc5ncccc5c4)n3n2)ccc1F [compound 69]
- EC50 (GTL16; Table 1): 1000 to 10000 nM
- IC50 [1]: 100 to 1000 nM

Compound: Fc1cc(F)cc(-c2ccc3nnc(Cc4ccc5ncccc5c4)n3n2)c1 [compound 70]
- EC50 (GTL16; Table 1): 100 to 1000 nM
- IC50 [1]: < 100 nM

Compound: CN(C)C(=O)c1cc(F)cc(-c2ccc3nnc(Cc4ccc5ncccc5c4)n3n2)c1 [compound 71]
- EC50 (GTL16; Table 1): 100 to 1000 nM
- IC50 [1]: 100 to 1000 nM

Compound: O=C(NCC(F)(F)F)c1ccc(-c2ccc3nnc(Cc4ccc5ncccc5c4)n3n2)cc1 [compound 72]
- EC50 (GTL16; Table 1): 100 to 1000 nM
- IC50 [1]: < 100 nM

Compound: O=C(NCCO)c1ccc(-c2ccc3nnc(Cc4ccc5ncccc5c4)n3n2)cc1F [compound 74]
- EC50 (GTL16; Table 1): 100 to 1000 nM
- IC50 [1]: < 100 nM

Compound: CCNC(=O)c1ccc(-c2ccc3nnc(Cc4ccc5ncccc5c4)n3n2)cc1F [compound 75]
- EC50 (GTL16; Table 1): < 100 nM
- IC50 [1]: < 100 nM

Compound: Cc1cc(F)cc(-c2ccc3nnc(Cc4ccc5ncccc5c4)n3n2)c1 [compound 76]
- EC50 (GTL16; Table 1): < 100 nM
- IC50 [1]: < 100 nM

Compound: Fc1ccc(-c2ccc3nnc(Cc4ccc5ncccc5c4)n3n2)cc1C(F)(F)F [compound 77]
- EC50 (GTL16; Table 1): < 100 nM
- IC50 [1]: 100 to 1000 nM

Compound: FC(F)(F)c1cccc(-c2ccc3nnc(Cc4ccc5ncccc5c4)n3n2)c1 [compound 78]
- EC50 (GTL16; Table 1): < 100 nM
- IC50 [1]: < 100 nM

Compound: CC(c1ccc2ncsc2c1)c1nnc2ccc(-c3cnn(C)c3)nn12 (stereo not drawn) [compound 79]
- EC50 (GTL16; Table 1): < 100 nM
- IC50 [1]: < 100 nM

Compound: CNC(=O)c1ccc(-c2ccc3nnc(C(C)c4ccc5ncccc5c4)n3n2)cc1F (stereo not drawn) [compound 80]
- EC50 (GTL16; Table 1): < 100 nM
- IC50 [1]: < 100 nM

Compound: CC(c1ccc2ncsc2c1)c1nnc2ccc(-c3cccc(C#N)c3)nn12 (stereo not drawn) [compound 81]
- EC50 (GTL16; Table 1): < 100 nM
- IC50 [1]: < 100 nM

Compound: CNC(=O)c1ccc(-c2ccc3nnc(C(C)c4ccc5ncsc5c4)n3n2)cc1F (stereo not drawn) [compound 82]
- EC50 (GTL16; Table 1): < 100 nM
- IC50 [1]: < 100 nM

Compound: Cc1cc2ncccc2cc1Cc1nnc2ccc(-c3cnn(C)c3)nn12 [compound 84]
- EC50 (GTL16; Table 1): < 100 nM
- IC50 [1]: < 100 nM

Compound: Cc1cc2ncccc2cc1Cc1nnc2ccc(-c3cccc(C#N)c3)nn12 [compound 85]
- EC50 (GTL16; Table 1): < 100 nM
- IC50 [1]: < 100 nM

Compound: Cn1cc(-c2ccc3nnc(Cc4c(F)cc5ncccc5c4F)n3n2)cn1 [compound 87]
- EC50 (GTL16; Table 1): < 100 nM
- IC50 [1]: < 100 nM

Compound: N#Cc1cccc(-c2ccc3nnc(Cc4c(F)cc5ncccc5c4F)n3n2)c1 [compound 88]
- EC50 (GTL16; Table 1): < 100 nM
- IC50 [1]: < 100 nM

Compound: CNC(=O)c1ccc(-c2ccc3nnc(Cc4c(F)cc5ncccc5c4F)n3n2)cc1F [compound 89]
- EC50 (GTL16; Table 1): < 100 nM
- IC50 [1]: < 100 nM

Compound: Cn1cc(-c2ccc3nnc(Cc4cc5cccnc5cc4F)n3n2)cn1 [compound 90]
- EC50 (GTL16; Table 1): < 100 nM
- IC50 [1]: < 100 nM

Compound: CCNC(=O)c1ccc(-c2ccc3nnc(Cc4ccc5ncsc5c4)n3n2)cc1F [compound 94]
- EC50 (GTL16; Table 1): 100 to 1000 nM
- IC50 [1]: 100 to 1000 nM

Compound: CC(C)NC(=O)c1ccc(-c2ccc3nnc(Cc4ccc5ncsc5c4)n3n2)cc1F [compound 95]
- EC50 (GTL16; Table 1): 100 to 1000 nM
- IC50 [1]: < 100 nM

Compound: Cn1cc(-c2ccc3nnc(Cc4ccc5ncsc5c4)n3n2)cn1 [compound 96]
- EC50 (GTL16; Table 1): < 100 nM
- IC50 [1]: < 100 nM

Compound: N#Cc1cccc(-c2ccc3nnc(Cc4ccc5ncsc5c4)n3n2)c1 [compound 98]
- EC50 (GTL16; Table 1): 100 to 1000 nM
- IC50 [1]: 100 to 1000 nM

Compound: CNC(=O)c1ccc(-c2ccc3nnc(Cc4ccc5ncsc5c4)n3n2)cc1F [compound 101]
- EC50 (GTL16; Table 1): 100 to 1000 nM
- IC50 [1]: < 100 nM

Compound: CS(=O)(=O)c1cccc(-c2ccc3nnc(Cc4ccc5ncsc5c4)n3n2)c1 [compound 102]
- EC50 (GTL16; Table 1): 100 to 1000 nM
- IC50 [1]: < 100 nM

Compound: C[C@@H](c1ccc2ncsc2c1)c1nnc2ccc(-c3cccc(C#N)c3)nn12 [compound 103, (S)-3-[3-(1-Benzothiazol-6-yl-ethyl)-[1,2,4]triazolo[4,3-b]pyridazin-6-yl]-benzonitrile]
- EC50 (GTL16; Table 1): < 100 nM
- IC50 [1]: < 100 nM

Compound: C=Cc1ccc2nnc(Cc3ccc4ncccc4c3)n2n1 [compound 107]
- EC50 (GTL16; Table 1): 100 to 1000 nM
- IC50 [1]: 100 to 1000 nM

Compound: c1cnc2ccc(Cc3nnc4ccc(C5CC5)nn34)cc2c1 [compound 109, 6-(6-Cyclopropyl-[1,2,4]triazolo[4,3-b]pyridazin-3-ylmethyl)-quinoline]
- EC50 (GTL16; Table 1): 100 to 1000 nM
- IC50 [1]: 100 to 1000 nM

Compound: Fc1cc2ncccc2c(F)c1Cc1nnc2ccc(Cl)nn12 [compound 111, 6-(6-Chloro-[1,2,4]triazolo[4,3-b]pyridazin-3-ylmethyl)-5,7-difluoro-quinoline]
- EC50 (GTL16; Table 1): 100 to 1000 nM
- IC50 [1]: 100 to 1000 nM

Compound: c1cnc2ccc(Cc3nnc4ccc(N5CCCCC5)nn34)cc2c1 [compound 112]
- EC50 (GTL16; Table 1): 100 to 1000 nM
- IC50 [1]: 100 to 1000 nM

Compound: CN1CCN(c2ccc3nnc(Cc4ccc5ncccc5c4)n3n2)CC1 [compound 113]
- EC50 (GTL16; Table 1): 100 to 1000 nM
- IC50 [1]: 100 to 1000 nM

Compound: Brc1cnc2ccc(Cc3nnc4nccnn34)cc2c1 [compound 117, 3-Bromo-6-[1,2,4]triazolo[4,3-b][1,2,4]triazin-3-ylmethyl-quinoline]
- EC50 (GTL16; Table 1): < 100 nM
- IC50 [1]: < 100 nM

Compound: Cn1cc(-c2cnc3ccc(Cc4nnc5ccc(C(F)(F)F)nn45)cc3c2)cn1 [compound 123, 3-(1-Methyl-1H-pyrazol-4-yl)-6-(6-trifluoromethyl-[1,2,4]triazolo[4,3-b]pyridazin-3-ylmethyl)-quinoline]
- EC50 (GTL16; Table 2): 100 to 1000 nM
- IC50 [1]: < 100 nM

Compound: Cc1ccc2nnc(Cc3ccc4ncc(-c5cn[nH]c5)cc4c3)n2n1 [compound 125, 6-(6-Methyl-[1,2,4]triazolo[4,3-b]pyridazin-3-ylmethyl)-3-(1H-pyrazol-4-yl)-quinoline]
- EC50 (GTL16; Table 2): 100 to 1000 nM
- IC50 [1]: < 100 nM

Compound: Cc1ccc2nnc(Cc3ccc4ncc(-c5cnn(C6CCNCC6)c5)cc4c3)n2n1 [compound 126]
- EC50 (GTL16; Table 2): < 100 nM
- IC50 [1]: < 100 nM

Compound: Cc1ccc2nnc(Cc3ccc4ncc(-c5cc(F)cc(F)c5)cc4c3)n2n1 [compound 128]
- EC50 (GTL16; Table 2): 1000 to 10000 nM
- IC50 [1]: 100 to 1000 nM

Compound: Cc1ccc2nnc(Cc3ccc4ncc(-c5cncnc5)cc4c3)n2n1 [compound 129]
- EC50 (GTL16; Table 2): 1000 to 10000 nM
- IC50 [1]: 100 to 1000 nM

Compound: Cc1ccc2nnc(Cc3ccc4ncc(-c5cccc(C#N)c5)cc4c3)n2n1 [compound 130]
- EC50 (GTL16; Table 2): < 100 nM
- IC50 [1]: < 100 nM

Compound: Cc1ccc2nnc(Cc3ccc4ncc(-c5cccnc5)cc4c3)n2n1 [compound 131]
- EC50 (GTL16; Table 2): < 100 nM
- IC50 [1]: < 100 nM

Compound: Cc1ccc2nnc(Cc3ccc4ncc(-n5ccnc5)cc4c3)n2n1 [compound 132, 3-Imidazol-1-yl-6-(6-methyl-[1,2,4]triazolo[4,3-b]pyridazin-3-ylmethyl)-quinoline]
- EC50 (GTL16; Table 2): 100 to 1000 nM
- IC50 [1]: 100 to 1000 nM

Compound: Cc1ccc2nnc(Cc3ccc4ncc(-c5cnn(CCN6CCOCC6)c5)cc4c3)n2n1 [compound 133]
- EC50 (GTL16; Table 2): < 100 nM
- IC50 [1]: < 100 nM

Compound: Cc1ccc2nnc(Cc3ccc4ncc(-c5cnn(CC(=O)O)c5)cc4c3)n2n1 [compound 134]
- EC50 (GTL16; Table 2): 100 to 1000 nM
- IC50 [1]: < 100 nM

Compound: Cc1ccc2nnc(Cc3ccc4ncc(-c5cccc(C(=O)O)c5)cc4c3)n2n1 [compound 135]
- EC50 (GTL16; Table 2): 1000 to 10000 nM
- IC50 [1]: 100 to 1000 nM

Compound: Cc1ccc2nnc(Cc3ccc4ncc(-c5ccc(C(=O)O)cc5)cc4c3)n2n1 [compound 136]
- EC50 (GTL16; Table 2): 1000 to 10000 nM
- IC50 [1]: 100 to 1000 nM

Compound: Cc1ccc2nnc(Cc3ccc4ncc(-c5cc6ccccc6[nH]5)cc4c3)n2n1 [compound 137]
- EC50 (GTL16; Table 2): 100 to 1000 nM
- IC50 [1]: < 100 nM

Compound: Cc1ccc2nnc(Cc3ccc4ncc(-c5ccc[nH]5)cc4c3)n2n1 [compound 138]
- EC50 (GTL16; Table 2): 1000 to 10000 nM
- IC50 [1]: < 100 nM

Compound: Cn1cc(-c2cnc3ccc(Cc4nnc5cccnn45)cc3c2)cn1 [compound 139]
- EC50 (GTL16; Table 2): < 100 nM
- IC50 [1]: < 100 nM

Compound: COc1ccc2nnc(Cc3ccc4ncc(-c5cnn(C)c5)cc4c3)n2n1 [compound 140, 6-(6-Methoxy-[1,2,4]triazolo[4,3-b]pyridazin-3-ylmethyl)-3-(1-methyl-1H-pyrazol-4-yl)-quinoline]
- EC50 (GTL16; Table 2): < 100 nM
- IC50 [1]: < 100 nM

Compound: Cn1cc(-c2cnc3ccc(Cc4nnc5ccc(-c6cnn(C)c6)nn45)cc3c2)cn1 [compound 141]
- EC50 (GTL16; Table 2): < 100 nM
- IC50 [1]: < 100 nM
